Literature values in patent US20170119738A1, “PHARMACEUTICAL COMPOSITIONS FOR RIZATRIPTAN” (Dr. Reddy's Laboratories, Ltd., priority 2015, published 2017).

Key:
[1] = test system: human cloned 5-HT1B/1D receptors

CN(C)CCc1c[nH]c2ccc(Cn3cncn3)cc12 [Rizatriptan, N,N-dimethyl-2-[5-(1H-1,2,4-triazol-1-ylmethyl)-1H-indol-3-yl]ethanamine]
binding affinity [1]: high affinity | pain-free response at 2 hours, symptom-free response at 2 hours, 24 hour sustained pain-free response (migraine headache; oral 10 mg vs oral sumatriptan, naratriptan, zolmitriptan (Adelman et al. 2001)): more effective | effectiveness for pain relief (PR) and pain freedom (PF) (migraine headache; oral 10 mg vs other oral triptans (Ng-Mak et al. 2007)): significantly more effective than other oral triptans
